Data on 1 compound can be found in patent publication US20260021167A1, “COMPOSITIONS AND METHODS FOR TREATING OR PREVENTING NEURODEGENERATIVE DISEASES” (Delaware State University, priority 2022, published 2026).

Assay [1] concerns SUMO-1. Description: Western blot of SUMO-1 in brain tissue extracts of PFF-injected mice. To be noted: vs PFF only. In kind it is in vivo, mouse. The method, then:
(§1) A mouse model of Parkinson's disease is C57BL/6 male or female mice (50% each) injected with 5 μg of mouse PFF at 12 months old, followed by a treatment below for 6-7 weeks: • 1) without PFF injection, followed by vehicle (control, n=7); • 2) PFF injection, followed by vehicle (PFF only: control, n=8); • 3) PFF injection, followed by daily 10 mg/kg Momordin gavage (n=7-8); • 4) PFF injection, followed by daily 50 mg/kg Momordin gavage (n=7-8).
Immunoblot Analyses. A total of three protein extractions were performed. In the first extraction, a gentle RIPA buffer containing the low concentration of detergent (25 mM Tris-HCL, 150 mM NaCl, 1% NP-40, 1% sodium deoxycholate and 0.1% SDS) was added with phosphatase inhibitors (100 μL for 10 mL) and 5 mM EDTA. The mixture was sonicated and centrifuged at 14,000 rpm for 10 min. The supernatant was collected for measuring the levels of phosphorylated α-syn, SENP-1 or SUMO-1 conjugated proteins for different groups. […] The primary antibodies pertaining to each protein analyzed were diluted at 1:1000 (p-Ser-129-α-synuclein, Cell signaling; SENP-1, SAB4501345, EMD) and incubated at 4° C. overnight. […] ImageJ was used to analyze specific bands on each blot and measured against the loading control (β-actin) for normalizing each band intensity.

Assay [2] has as its system SUMO-1. Kind of assay: Western blot of SUMO-1 level in PFF-exposed N27p cells. Format: cell-based, rat. Particulars: PFF exposure, compared with PFF only. An excerpt: A) The RNA interference suppressed the expression level of SENP-1, which enhanced SUMO-1 level. […] One-Way ANOVA, Dunnett's test was applied for statistical analysis in comparison with PFF only (#). *: p<0.05, **: p<0.01, p<0.001 and n.s.: not significant.

In the next assay the test system is TH+ dopaminergic neurons. Description: Immunohistochemistry of TH staining in striatum and SNc of PFF-injected mice. Format: in vivo, mouse. The method, then: as §1
Immunohistochemistry. The serial coronal sections of the right hemisphere were collected throughout the striatum and substantia nigra. Each section with a thickness of 14 μm was mounted as a set of 5 onto positively charged slides (Midwest Sci, Valley Park, MO). The slides were kept at −80° C. until immunohistochemistry was performed. The sections were thawed at room temperature for 30 min, followed by a rehydration step in 0.1M PB for 10 min. The permeabilization step was performed using pre-chilled 100% acetone for 10 min. The excess acetone was dried, and permeabilization solution (40 µL Triton-X in 2% BSA) was added to the slides and kept aside for an additional 10 min. A blocking reagent containing 5% BSA in PB-T was given in the blocking step after drying the slides of excess permeabilization solution. The primary antibody was exposed under the coverslips to prevent the dehydration of the primary antibody. After the primary antibody (EMD Millipore-AB152) treatment at 4° C. overnight, the tissues were washed in PBS-T for 5 min three times. Then, slides were treated with a secondary antibody of Alexa-647-conjugated goat anti-rabbit (1:1000; Molecular Probes, Thermo Fisher Scientific) and incubated at room temperature for 2 h. The secondary antibody was washed in PBS-T for 3×5 min. Coverslips were mounted on slides using ProLong Diamond antifade mounting medium (Thermofisher, MA, USA). All images were captured using EVOS FL Cell Imaging Systems (Invitrogen), and every fifth section was analyzed for measuring the intensity of TH staining in the striatum and counting TH+ neurons in the SNc in a blinded manner. The same procedure was used for assessing the levels of phosphorylated Ser-129-α-synuclein (1:500, Cell signaling, cat #23706S) and protein aggregation using thioflavin-T (20 μM, Acros). Pictures for specific regions such as the striatum and ventral midbrain (vMB) were taken using confocal microscopy and stitched together to obtain a single image for representation purposes. The intensities were measured using ImageJ by a blinded rater.
Immunohistochemistry. The serial coronal sections of the right hemisphere were collected throughout the striatum and substantia nigra. Each section with a thickness of 14 μm was mounted as a set of 5 onto positively charged slides (Midwest Sci, Valley Park, MO). […]

Regarding `CC1(C)CC[C@]2(C(=O)O)CC[C@]3(C)C(=CC[C@@H]4[C@@]5(C)CC[C@H](O[C@@H]6O[C@H](C(=O)O)[C@@H](O)[C@H](O[C@@H]7OC[C@@H](O)[C@H](O)[C@H]7O)[C@H]6O)C(C)(C)[C@@H]5CC[C@]43C)[C@@H]2C1` [Momordin lc], the “level of SUMO-1 in the MB (Western blot, tissue extracts)” value with SUMO-1 [1] (midbrain) is “enhanced level of SUMO-1”. In the assay on SUMO-1 [1] (striatum), the “level of SUMO-1 in the STR (Western blot, tissue extracts)” value is “enhanced level of SUMO-1”. Further, in the assay with SUMO-1 [2], the “level of SUMO-1 (Western blot)” value is on record as “increased level of SUMO-1”. Further, the “recovery from damages in the striatum and Substantia Nigra compacta (SNc)” value in the assay with TH+ dopaminergic neurons (50 mg/kg oral for 6-7 weeks, PFF-injected mice) is “effective”. Further, in the assay with TH+ dopaminergic neurons (PFF injection), the “dopaminergic neuronal death / neuronal cell loss in mouse brains” value is listed as “reverse dopaminergic neuronal death”. Further, the “number of TH+ dopaminergic neurons in the SNc” value in the assay on TH+ dopaminergic neurons (both doses (10 and 50 mg/kg) oral for 6-7 weeks, PFF-injected mice, vs PFF only) is “significantly recovered”. Besides, the “intensity of TH+ label in the striatum” value with TH+ dopaminergic neurons (oral treatment for 6-7 weeks, PFF-injected mice, vs PFF only) is recorded as “improves the intensity of TH+ label”.
